Test system: 485176-168-R4-J1-PDC spheroids with HUVEC/MSC, viability
Assay: Anticancer human tumor 485176-168-R4-J1-PDC patient-derived pancreatic adenocarcinoma cell line growth inhibition [GQUAD]
Details: for IC50: curve of first compound; for viability, T/C: stronger effect = lower value
Outline: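 Viability of tumor cells grown as complex spheroids with endothelial and stromal cells, exposed to drug combinations. Top concentration at or near clinical Cmax (else 10 microM), diluted in half-log increments.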

[1] = second compound 0.0316 µM, first compound 0.0316 µM
[2] = second compound 0.0316 µM, first compound 0.1 µM
[3] = second compound 0.0316 µM, first compound 0.316 µM
[4] = second compound 0.0316 µM, first compound 1 µM
[5] = second compound 0.0316 µM, first compound 3.16 µM
[6] = second compound 0.0316 µM, first compound 10 µM
[7] = second compound 0.1 µM, first compound 0.0316 µM
[8] = second compound 0.1 µM, first compound 0.1 µM
[9] = second compound 0.1 µM, first compound 0.316 µM
[10] = second compound 0.1 µM, first compound 1 µM
[11] = second compound 0.1 µM, first compound 3.16 µM
[12] = second compound 0.1 µM, first compound 10 µM
[13] = second compound 0.316 µM, first compound 0.0316 µM
[14] = second compound 0.316 µM, first compound 0.1 µM
[15] = second compound 0.316 µM, first compound 0.316 µM
[16] = second compound 0.316 µM, first compound 1 µM
[17] = second compound 0.316 µM, first compound 3.16 µM
[18] = second compound 0.316 µM, first compound 10 µM
[19] = second compound 1 µM, first compound 0.0316 µM
[20] = second compound 1 µM, first compound 0.1 µM
[21] = second compound 1 µM, first compound 0.316 µM
[22] = second compound 1 µM, first compound 1 µM
[23] = second compound 1 µM, first compound 3.16 µM
[24] = second compound 1 µM, first compound 10 µM
[25] = second compound 3.16 µM, first compound 0.0316 µM
[26] = second compound 3.16 µM, first compound 0.1 µM
[27] = second compound 3.16 µM, first compound 0.316 µM
[28] = second compound 3.16 µM, first compound 1 µM
[29] = second compound 3.16 µM, first compound 3.16 µM
[30] = second compound 3.16 µM, first compound 10 µM
[31] = second compound 10 µM, first compound 0.0316 µM
[32] = second compound 10 µM, first compound 0.1 µM
[33] = second compound 10 µM, first compound 0.316 µM
[34] = second compound 10 µM, first compound 1 µM
[35] = second compound 10 µM, first compound 3.16 µM
[36] = second compound 10 µM, first compound 10 µM
[37] = second compound 0.0316 µM, first compound 0.000999 µM
[38] = second compound 0.0316 µM, first compound 0.00316 µM
[39] = second compound 0.0316 µM, first compound 0.00999 µM
[40] = second compound 0.0316 µM, first compound 0.0999 µM
[41] = second compound 0.1 µM, first compound 0.000999 µM
[42] = second compound 0.1 µM, first compound 0.00316 µM
[43] = second compound 0.1 µM, first compound 0.00999 µM
[44] = second compound 0.1 µM, first compound 0.0999 µM
[45] = second compound 0.316 µM, first compound 0.000999 µM
[46] = second compound 0.316 µM, first compound 0.00316 µM
[47] = second compound 0.316 µM, first compound 0.00999 µM
[48] = second compound 0.316 µM, first compound 0.0999 µM
[49] = second compound 1 µM, first compound 0.000999 µM
[50] = second compound 1 µM, first compound 0.00316 µM
[51] = second compound 1 µM, first compound 0.00999 µM
[52] = second compound 1 µM, first compound 0.0999 µM
[53] = second compound 3.16 µM, first compound 0.000999 µM
[54] = second compound 3.16 µM, first compound 0.00316 µM
[55] = second compound 3.16 µM, first compound 0.00999 µM
[56] = second compound 3.16 µM, first compound 0.0999 µM
[57] = second compound 10 µM, first compound 0.000999 µM
[58] = second compound 10 µM, first compound 0.00316 µM
[59] = second compound 10 µM, first compound 0.00999 µM
[60] = second compound 10 µM, first compound 0.0999 µM
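Also: spheroids exposed to compounds for seven days before readout.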
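For viability, T/C in this document: percent viability relative to DMSO vehicle control wells as 100%.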

CC1COCCN1c1cc(C2(O)CC3CCC(C2)O3)c2cnn(-c3ccn[nH]3)c2n1 (stereo not drawn) + Cc1cnc(CNC(=O)c2c(=O)c3ccc(N4CCCN(C)CC4)nc3n3c2sc2ccccc23)cn1
IC50 (second compound 0.0316 µM): < 31.6 nM
IC50 (second compound 0.1 µM): < 31.6 nM
IC50 (second compound 0.316 µM): < 31.6 nM
IC50 (second compound 1 µM): < 31.6 nM
IC50 (second compound 3.16 µM): < 31.6 nM
IC50 (second compound 10 µM): < 31.6 nM
viability, T/C [1]: 48.9%
viability, T/C [2]: 17.3%
viability, T/C [3]: 11%
viability, T/C [4]: 8.41%
viability, T/C [5]: 10.1%
viability, T/C [6]: 8.06%
viability, T/C [7]: 22.6%
viability, T/C [8]: 14.5%
viability, T/C [9]: 9.1%
viability, T/C [10]: 9.8%
viability, T/C [11]: 11.5%
viability, T/C [12]: 8.77%
viability, T/C [13]: 15.5%
viability, T/C [14]: 11.7%
viability, T/C [15]: 10.3%
viability, T/C [16]: 9.55%
viability, T/C [17]: 10.9%
viability, T/C [18]: 9.41%
viability, T/C [19]: 13.8%
viability, T/C [20]: 12.3%
viability, T/C [21]: 9.3%
viability, T/C [22]: 7.89%
viability, T/C [23]: 9.58%
viability, T/C [24]: 7.69%
viability, T/C [25]: 17.7%
viability, T/C [26]: 11.3%
viability, T/C [27]: 10.5%
viability, T/C [28]: 9.3%
viability, T/C [29]: 8.86%
viability, T/C [30]: 8.53%
viability, T/C [31]: 13.8%
viability, T/C [32]: 11.2%
viability, T/C [33]: 10.2%
viability, T/C [34]: 9.98%
viability, T/C [35]: 9.05%
viability, T/C [36]: 7.21%

O=C(c1cc(Cc2n[nH]c(=O)c3ccccc23)ccc1F)N1CCN(C(=O)C2CC2)CC1 + Cc1cnc(CNC(=O)c2c(=O)c3ccc(N4CCCN(C)CC4)nc3n3c2sc2ccccc23)cn1
IC50 (second compound 0.0316 µM): > 10000 nM
IC50 (second compound 0.1 µM): > 10000 nM
IC50 (second compound 0.316 µM): > 10000 nM
IC50 (second compound 1 µM): < 31.6 nM
IC50 (second compound 3.16 µM): < 31.6 nM
IC50 (second compound 10 µM): < 31.6 nM
viability, T/C [1]: 92.7%
viability, T/C [2]: 74.2%
viability, T/C [3]: 85.1%
viability, T/C [4]: 71%
viability, T/C [5]: 68.4%
viability, T/C [6]: 75.7%
viability, T/C [7]: 63.5%
viability, T/C [8]: 75.8%
viability, T/C [9]: 63.4%
viability, T/C [10]: 64.4%
viability, T/C [11]: 75.8%
viability, T/C [12]: 59.2%
viability, T/C [13]: 57.2%
viability, T/C [14]: 52.8%
viability, T/C [15]: 60.7%
viability, T/C [16]: 59.2%
viability, T/C [17]: 54.2%
viability, T/C [18]: 45.6%
viability, T/C [19]: 44.8%
viability, T/C [20]: 43.7%
viability, T/C [21]: 52.6%
viability, T/C [22]: 42.6%
viability, T/C [23]: 48.4%
viability, T/C [24]: 42.6%
viability, T/C [25]: 47.4%
viability, T/C [26]: 43.7%
viability, T/C [27]: 38.4%
viability, T/C [28]: 38.6%
viability, T/C [29]: 41.6%
viability, T/C [30]: 35.8%
viability, T/C [31]: 43.5%
viability, T/C [32]: 39.7%
viability, T/C [33]: 42.1%
viability, T/C [34]: 38.4%
viability, T/C [35]: 35.6%
viability, T/C [36]: 35.4%

CCc1c2c(nc3ccc(O)cc13)-c1cc3c(c(=O)n1C2)COC(=O)[C@]3(O)CC + CN(C)c1ccc(Nc2c3ccc(NC(=O)CCN4CCCC4)cc3nc3cc(NC(=O)CCN4CCCC4)ccc23)cc1
IC50 (second compound 0.0316 µM): 6.98 nM
IC50 (second compound 0.1 µM): 9.32 nM
IC50 (second compound 0.316 µM): 9.31 nM
IC50 (second compound 1 µM): 7.26 nM
IC50 (second compound 3.16 µM): 11.2 nM
IC50 (second compound 10 µM): 7.71 nM
viability, T/C [37]: 87.7%
viability, T/C [38]: 68.4%
viability, T/C [39]: 38.3%
viability, T/C [1]: 28.5%
viability, T/C [40]: 13.5%
viability, T/C [3]: 6%
viability, T/C [41]: 77.8%
viability, T/C [42]: 67.9%
viability, T/C [43]: 48.1%
viability, T/C [7]: 28.6%
viability, T/C [44]: 11.2%
viability, T/C [9]: 5.98%
viability, T/C [45]: 91.1%
viability, T/C [46]: 86.8%
viability, T/C [47]: 41.8%
viability, T/C [13]: 27.6%
viability, T/C [48]: 12.9%
viability, T/C [15]: 6.92%
viability, T/C [49]: 103%
viability, T/C [50]: 58%
viability, T/C [51]: 50.7%
viability, T/C [19]: 28.1%
viability, T/C [52]: 13.8%
viability, T/C [21]: 6.15%
viability, T/C [53]: 88.8%
viability, T/C [54]: 88%
viability, T/C [55]: 43.4%
viability, T/C [25]: 34.2%
viability, T/C [56]: 14.3%
viability, T/C [27]: 8.88%
viability, T/C [57]: 80.3%
viability, T/C [58]: 61%
viability, T/C [59]: 45.3%
viability, T/C [31]: 34.1%
viability, T/C [60]: 19.3%
viability, T/C [33]: 8.05%

CC[C@@]1(O)C(=O)OCc2c1cc1n(c2=O)Cc2cc3c(CN(C)C)c(O)ccc3nc2-1 + CN(C)c1ccc(Nc2c3ccc(NC(=O)CCN4CCCC4)cc3nc3cc(NC(=O)CCN4CCCC4)ccc23)cc1
IC50 (second compound 0.0316 µM): 180 nM
IC50 (second compound 0.1 µM): 185 nM
IC50 (second compound 0.316 µM): 168 nM
IC50 (second compound 1 µM): 191 nM
IC50 (second compound 3.16 µM): 128 nM
IC50 (second compound 10 µM): 232 nM
viability, T/C [37]: 97.9%
viability, T/C [38]: 88.1%
viability, T/C [39]: 83.8%
viability, T/C [1]: 90.6%
viability, T/C [40]: 65%
viability, T/C [3]: 35.6%
viability, T/C [41]: 94.8%
viability, T/C [42]: 106%
viability, T/C [43]: 95.9%
viability, T/C [7]: 81%
viability, T/C [44]: 64.5%
viability, T/C [9]: 38.4%
viability, T/C [45]: 97.3%
viability, T/C [46]: 117%
viability, T/C [47]: 107%
viability, T/C [13]: 99.1%
viability, T/C [48]: 55.7%
viability, T/C [15]: 43.1%
viability, T/C [49]: 89.1%
viability, T/C [50]: 97.7%
viability, T/C [51]: 99.1%
viability, T/C [19]: 81.1%
viability, T/C [52]: 69.5%
viability, T/C [21]: 35.8%
viability, T/C [53]: 104%
viability, T/C [54]: 99.7%
viability, T/C [55]: 87.2%
viability, T/C [25]: 76.6%
viability, T/C [56]: 52.6%
viability, T/C [27]: 35.5%
viability, T/C [57]: 108%
viability, T/C [58]: 98.6%
viability, T/C [59]: 88.3%
viability, T/C [31]: 94.6%
viability, T/C [60]: 63.5%
viability, T/C [33]: 44%
